Laboratory results reported in patent publication US20170355705A1 (GlaxoSmithKline Intellectual Property (No.2) Limited, priority 2014, published 2017).

Biological target: T1, SIRT1 (Homo sapiens, UniProt Q96EB6)
T1 sequence (Q96EB6 1-747): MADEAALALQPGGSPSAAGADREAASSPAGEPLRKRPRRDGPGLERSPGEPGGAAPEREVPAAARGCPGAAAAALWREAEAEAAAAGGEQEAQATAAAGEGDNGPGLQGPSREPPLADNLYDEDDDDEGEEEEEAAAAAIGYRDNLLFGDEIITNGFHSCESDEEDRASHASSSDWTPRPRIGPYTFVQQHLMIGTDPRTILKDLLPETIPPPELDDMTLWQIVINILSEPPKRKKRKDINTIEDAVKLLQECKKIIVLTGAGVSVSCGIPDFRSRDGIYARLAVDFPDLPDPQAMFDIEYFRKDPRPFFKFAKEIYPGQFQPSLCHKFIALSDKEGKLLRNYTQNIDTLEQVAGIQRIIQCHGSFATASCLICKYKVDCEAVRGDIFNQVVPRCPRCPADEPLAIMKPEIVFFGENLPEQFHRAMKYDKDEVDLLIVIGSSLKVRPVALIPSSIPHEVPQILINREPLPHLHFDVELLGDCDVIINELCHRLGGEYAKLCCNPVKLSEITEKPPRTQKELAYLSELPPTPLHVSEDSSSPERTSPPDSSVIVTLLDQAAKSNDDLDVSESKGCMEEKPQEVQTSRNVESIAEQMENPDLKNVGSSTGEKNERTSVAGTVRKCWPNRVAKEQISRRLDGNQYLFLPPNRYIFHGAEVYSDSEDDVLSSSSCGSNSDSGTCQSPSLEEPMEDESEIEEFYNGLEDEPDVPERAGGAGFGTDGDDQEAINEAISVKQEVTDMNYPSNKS
Assay: Trp mass spectrometry assay of SIRT1 activity (EC1.5, percent maximum activation)
Assay type: biochemical
Settings: Trp mass spectrometry assay; for TRP Activity (EC1.5): EC1.5 = concentration giving 150% activation of SIRT1
In short: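 Sirtuin deacetylation was run with purified N-His SIRT1 and the 5TMR Trp peptide across a compound titration, stopped after 25 min by acidification, and analysed by MS for OAADPR. Endpoint lay within the linear range.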

[1] = 0.5 μM peptide substrate, 120 μM βNAD+, 10 nM SIRT1, 25 minutes at 25° C.
[2] = percent maximum activation of SIRT1

TRP Activity (EC1.5, concentration of test compound that results in 150% activation of SIRT1) [1] | TRP MAX RESP (percent maximum fold activation) [1] | TRP Activity (EC1.5) | TRP MAX RESP (percent maximum fold activation) [2] | SMILES
B (EC1.5 1-25 μM) | A (Fold activation ≧150%) | – | – | Cc1ccc(-c2ccc3c(n2)N(C(=O)Nc2cccc4cnccc24)[C@H]2CCN3C2)cn1 [Example 209, (4S)-N-(isoquinolin-5-yl)-7-(6-methylpyridin-3-yl)-3,4-dihydro-1,4-methanopyrido[2,3-b][1,4]diazepine-5(2H)-carboxamide]
– | – | A (EC1.5<1 μM) | A (Fold activation ≧150%) | O=C(Nc1ccnc(OC[C@@H](O)CO)n1)N1c2nc(-c3cccc(C(F)(F)F)c3)ccc2N2CC[C@H]1C2 [Example 134, (4S)-N-(2-((S)-2,3-dihydroxypropoxy)pyrimidin-4-yl)-7-(3-(trifluoromethyl)phenyl)-3,4-dihydro-1,4-methanopyrido[2,3-b][1,4]diazepine-5(2H)-carboxamide]
– | – | B (EC1.5 1-25 μM) | A (Fold activation ≧150%) | Cc1ccc(-c2nc3c(cc2Br)N2CC[C@@H](C2)N3C(=O)Nc2ccccn2)cn1 [Example 2, (4S)-8-bromo-7-(6-methylpyridin-3-yl)-N-(pyridin-2-yl)-3,4-dihydro-1,4-methano pyrido[2,3-b][1,4]diazepine-5(2H)-carboxamide]
– | – | A (EC1.5<1 μM) | A (Fold activation ≧150%) | O=C(Nc1cnccn1)N1c2nc(N3CCC(C(F)(F)F)CC3)ccc2N2CC[C@H]1C2 [Example 191, (4S)-N-(pyrazin-2-yl)-7-(4-(trifluoromethyl)piperidin-1-yl)-3,4-dihydro-1,4-methanopyrido[2,3-b][1,4]diazepine-5(2H)-carboxamide]
– | – | B (EC1.5 1-25 μM) | A (Fold activation ≧150%) | Cc1ccc(NC(=O)N2c3nc(-c4ccnc(C)c4)ccc3N3CC[C@H]2C3)cn1 [Example 178, (4S)-N-(6-methylpyridin-3-yl)-7-(2-methylpyridin-4-yl)-3,4-dihydro-1,4-methanopyrido[2,3-b][1,4]diazepine-5(2H)-carboxamide]
– | – | C (EC1.5>25 μM) | B (Fold Activation <150%) | Cc1cc(-c2nc3c(cc2Cl)N2CC[C@@H](C2)N3C(=O)Nc2ccnc(OC3CCOCC3)n2)ccn1 [Example 21, (4S)-8-chloro-7-(2-methylpyridin-4-yl)-N-(2-((tetrahydro-2H-pyran-4-yl)oxy)pyrimidin-4-yl)-3,4-dihydro-1,4-methanopyrido[2,3-b][1,4]diazepine-5(2H)-carboxamide]
– | – | B (EC1.5 1-25 μM) | A (Fold activation ≧150%) | Cc1cc(-c2nc3c(cc2Cl)N2CC[C@@H](C2)N3C(=O)Nc2cc(OC[C@H](O)CO)ccn2)ccn1 [Example 38, (4S)-8-chloro-N-(4-((R)-2,3-dihydroxypropoxy)pyridin-2-yl)-7-(2-methylpyridin-4-yl)-3,4-dihydro-1,4-methanopyrido[2,3-b][1,4]diazepine-5(2H)-carboxamide]
– | – | C (EC1.5>25 μM) | B (Fold Activation <150%) | Cc1cc(-c2ccc3c(n2)N(C(=O)NCCc2ccccn2)[C@H]2CCN3C2)ccn1.Cl [Example 196, (4S)-7-(2-methylpyridin-4-yl)-N-(2-(pyridin-2-yl)ethyl)-3,4-dihydro-1,4-methanopyrido[2,3-b][1,4]diazepine-5(2H)-carboxamide hydrochloride]
A (EC1.5<1 μM) | A (Fold activation ≧150%) | – | – | CC(C)(CO)COc1cncc(NC(=O)N2c3nc(-c4cccc(C(F)(F)F)c4)ccc3N3CC[C@H]2C3)n1 [Example 304, (4S)-N-(6-(3-hydroxy-2,2-dimethylpropoxy)pyrazin-2-yl)-7-(3-(trifluoromethyl)phenyl)-3,4-dihydro-1,4-methanopyrido[2,3-b][1,4]diazepine-5(2H)-carboxamide]
B (EC1.5 1-25 μM) | A (Fold activation ≧150%) | – | – | CN1CCN(c2ccc3c(n2)N(C(=O)Nc2cnccn2)[C@H]2CCN3C2)CC1 [Example 206, (4S)-7-(4-methylpiperazin-1-yl)-N-(pyrazin-2-yl)-3,4-dihydro-1,4-methanopyrido[2,3-b][1,4]diazepine-5(2H)-carboxamide]
– | – | C (EC1.5>25 μM) | B (Fold Activation <150%) | Cc1cc(-c2ccc3c(n2)N(C(=O)N2CCC(C)C2)[C@H]2CCN3C2)ccn1 (single isomer, unassigned) [Example 193]
– | – | B (EC1.5 1-25 μM) | A (Fold activation ≧150%) | O=C(Nc1ccnc(OC[C@@H](O)CO)c1)N1c2nc(-c3cncc(C(F)(F)F)c3)c(Cl)cc2N2CC[C@H]1C2 [Example 109, (4S)-8-chloro-N-(2-((S)-2,3-dihydroxypropoxy)pyridin-4-yl)-7-(5-(trifluoromethyl)pyridin-3-yl)-3,4-dihydro-1,4-methanopyrido[2,3-b][1,4]diazepine-5(2H)-carboxamide]
– | – | B (EC1.5 1-25 μM) | A (Fold activation ≧150%) | Cc1cc(-c2nc3c(cc2C)N2CC[C@@H](C2)N3C(=O)Nc2ccccn2)ccn1 [Example 36, (4S)-8-methyl-7-(2-methylpyridin-4-yl)-N-(pyridin-2-yl)-3,4-dihydro-1,4-methanopyrido[2,3-b][1,4]diazepine-5(2H)-carboxamide]
– | – | A (EC1.5<1 μM) | A (Fold activation ≧150%) | CCc1cncc(NC(=O)N2c3nc(-c4ccnc(C)c4)ccc3N3CC[C@H]2C3)n1 [Example 122, (4S)-N-(6-ethylpyrazin-2-yl)-7-(2-methylpyridin-4-yl)-3,4-dihydro-1,4-methanopyrido[2,3-b][1,4]diazepine-5(2H)-carboxamide]
– | A (Fold activation ≧150%) | – | – | Cc1cc(-c2ccc3c(n2)N(C(=O)Nc2cc(-c4cnc(C)s4)ccn2)[C@H]2CCN3C2)ccn1 [Example 295]
A (EC1.5<1 μM) | A (Fold activation ≧150%) | – | – | CC1(C)CN(c2ccc3c(n2)N(C(=O)Nc2cnccn2)[C@H]2CCN3C2)CCO1 [Example 211, (4S)-7-(2,2-dimethylmorpholino)-N-(pyrazin-2-yl)-3,4-dihydro-1,4-methanopyrido[2,3-b][1,4]diazepine-5(2H)-carboxamide]
– | – | A (EC1.5<1 μM) | A (Fold activation ≧150%) | O=C(Nc1ccnc(OC[C@H](O)CO)c1)N1c2nc(-c3cccc(C(F)(F)F)c3)ccc2N2CC[C@H]1C2 [Example 132, (4S)-N-(2-((R)-2,3-dihydroxypropoxy)pyridin-4-yl)-7-(3-(trifluoromethyl)phenyl)-3,4-dihydro-1,4-methanopyrido[2,3-b][1,4]diazepine-5(2H)-carboxamide]
B (EC1.5 1-25 μM) | A (Fold activation ≧150%) | – | – | Cn1ccc(-c2ccc3c(n2)N(C(=O)Nc2cccnc2)[C@H]2CCN3C2)cc1=O [Example 233, (4S)-7-(1-methyl-2-oxo-1,2-dihydropyridin-4-yl)-N-(pyridin-3-yl)-3,4-dihydro-1,4-methanopyrido[2,3-b][1,4]diazepine-5(2H)-carboxamide]
– | – | – | A (Fold activation ≧150%) | Cc1cc(-c2ccc3c(n2)N(C(=O)Nc2cnc4c(c2)OCCO4)[C@H]2CCN3C2)ccn1 [Example 148, (4S)-N-(2,3-dihydro-[1,4]dioxino[2,3-b]pyridin-7-yl)-7-(2-methylpyridin-4-yl)-3,4-dihydro-1,4-methanopyrido[2,3-b][1,4]diazepine-5(2H)-carboxamide]
– | – | C (EC1.5>25 μM) | B (Fold Activation <150%) | Cc1cc(-c2ccc3c(n2)N(C(=O)N[C@@H](C)c2ccccn2)[C@H]2CCN3C2)ccn1 [Example 168, (4S)-7-(2-methylpyridin-4-yl)-N-((S)-1-(pyridin-2-yl)ethyl)-3,4-dihydro-1,4-methanopyrido[2,3-b][1,4]diazepine-5(2H)-carboxamide]
– | – | B (EC1.5 1-25 μM) | A (Fold activation ≧150%) | Cc1cc(-c2nc3c(cc2Cl)N2CC[C@@H](C2)N3C(=O)Nc2ccnc(OC[C@@H](O)CO)c2)ccn1 [Example 37, (4S)-8-chloro-N-(2-((S)-2,3-dihydroxypropoxy)pyridin-4-yl)-7-(2-methylpyridin-4-yl)-3,4-dihydro-1,4-methanopyrido[2,3-b][1,4]diazepine-5(2H)-carboxamide]
